Test results from US12497359B2, “Acrylamide derivatives” (NRG Therapeutics Ltd, priority 2020, dated 2025).
Converted amounts (≈) assume the structure as drawn.

Legend:
[1] = Microsomal clearance assay, rat liver microsomes; format: in vitro ADME; conditions: average value from two experiments, read-out: Rat liver microsomes intrinsic clearance (CLint)
Experimental: The microsomal stability of test compounds was evaluated using rat liver microsomes (BioIVT) with and without the cofactors nicotinamide adenine dinucleotide phosphate (NADPH) and uridine-diphosphate-glucuronic acid (UDPGA). Reactions were performed in a final volume of 250 μl pre-warmed (37° C.) 100 mM phosphate buffer containing 5 mM MgCl2, 0.025 mg/ml alamethicin, and 0.5 mg/ml rat liver microsomes. NADPH and UDPGA were included at 1 mM and 2 mM respectively, where appropriate. Reactions were started with the addition of 1 μM (final concentration) test compound. Verapamil was used as the positive control. Solutions were incubated in a water bath at 37° C. and aliquots collected at 0.5, 5, 15, 30 and 60 min. Reactions were stopped by the addition of 5 volumes of cold acetonitrile with internal standards (200 nM caffeine and 100 nM tolbutamide). Samples were centrifuged at 3220 g for 40 min. An aliquot of supernatant was diluted 1:1 In ultra-pure H20, then used for LC-MS/MS analysis. Peak areas were determined from extracted ion chromatograms. The slope value, k, was determined by linear regression of the natural logarithm of the remaining percentage of the parent drug vs. incubation time curve. The in vitro half-life (in vitro t1/2) was determined from the slope value: in vitro t1/2=0.693/k. Conversion of the in vitro t1/2 (min) into the in vitro intrinsic clearance (in vitro CLint, in μL/min/mg protein) was done using the following equation (mean of duplicate determinations): in vitro Clint=(0.693/t1/2)*(Vol of incubation (μl)/amount of protein (mg)).

[2] = test system: mPTP; test: mPTP activity assay in isolated rat brain mitochondria; format: biochemical; conditions: for mPTP Rat brain pIC50: isolated rat brain mitochondria
Experimental: MPTP activity was measured in brain mitochondria freshly isolated from female Sprague Dawley (250 to 300 gram) rats. Anaesthetised rats were perfused in-situ with ˜40 ml cold Dulbecco's Phosphate Buffered Saline (DPBS), then brains dissected and transferred into 30 ml Isolation Buffer (225 mM mannitol, 75 mM sucrose, 1 mM EGTA, adjusted to pH 7.4 with 1 M NaOH). The brain was minced using tweezers and a scalpel into ˜5 mm pieces then transferred into a 50 ml Potterton Dounce homogenization tube on ice containing 10 ml ice-cold isolation buffer (as above with addition of Complete Protease inhibitor; 1 tablet per 50 ml buffer). Homogenisation was carried out using a teflon pestle at 1800 rpm. The slurry was centrifuged at 2000 g for 10 min at 4° C., then the supernatant centrifuged at 12,000 g for 9 min. The pellet was resuspended with a dounce homogeniser in isolation buffer as above but with the addition of 0.02% digitonin, centrifuged at 12,000 g for 11 min and finally resuspended in 5 ml modified isolation buffer (as above but with EGTA reduced to 0.1 mM).
Test compounds were prepared in 384 well polypropylene assay plates as described above for the liver mitochondria assay. A stock mitochondria/Fluo5N assay solution was prepared in 5.6 ml assay buffer (120 mM mannitol, 40 mM MOPS, 5 mM KH2PO4, 60 mM KCl, 10 mM pyruvate, 2 mM malate, 2 mM MgCl2, 20 μM ADP, 1.26 μM oligomycin A, adjusted to pH 7.4) supplemented with Fluo5N pentapotassium salt (2 μM) and 1 ml mitochondria suspension, then transferred (15 μl) into the assay plate containing test compounds and incubated for 10 min at RT. Assay plates were then transferred to a FLIPR Tetra plate reader (Molecular Devices). Dye fluorescence was then measured every 3 sec for a total of 10 min. After 12 sec, a 2.5 μl bolus of Ca2+(75 μM) was added from a source plate containing 675 μM CaCl2 in FLIPR assay buffer. IC50 values for test compounds were calculated using the fluorescence value collected at the 10 min timepoint with % inhibition calculated using the DMSO control and cyclosporin A values at […].

[3] = PBS solubility; format: physicochemical; conditions: aqueous buffer, kinetic from dmso stock; PBS pH 7.4, 2 hr at 25° C.
Summary of the method: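 Compound from 10 mM DMSO stock was added in duplicate to FaSSIF or PBS (pH 7.4) and shaken at 1100 rpm for 2 hr at 25 °C. After filtration, the filtrate was quantified by LC-MS/MS with internal standard against a standard of known concentration.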

| microsomal CLint at 1 µM [1] [µL/min/mg] | Compound | mPTP Rat brain pIC50 [2] | solubility at 2 h [3] [µM] | activity in the rat brain mitochondria assay ([2]; comparison among Example compounds, in words) |
| --- | --- | --- | --- | --- |
| < 3 | C[C@@H]1COc2ccccc2[C@@H]1NC(=O)/C=C/c1ccc2cn[nH]c2c1 (single isomer, unassigned) [Example 15d, (E)-3-(1H-indazol-6-yl)-N-(3-methylchroman-4-yl)acrylamide] | 7.6 | 2 (≈ 0.667 µg/mL) |  |
|  | C[C@H]1Cc2ccccc2[C@@H]1NC(=O)/C=C/c1ccc2cn[nH]c2c1 (single isomer, unassigned) [Example 14c] | 8.4 | 0.6 (≈ 0.19 µg/mL) | highest activity |
| 10 | COCc1ccccc1NC(=O)/C=C/c1ccc2cn[nH]c2c1 [Example 29, (E)-3-(1H-indazol-6-yl)-N-(2-(methoxymethyl)phenyl)acrylamide] | 6.8 | 29 (≈ 8.91 µg/mL) |  |

| Compound | microsomal CLint at 1 µM [1] [µL/min/mg] | mPTP Rat brain pIC50 [2] | solubility at 2 h [3] [µM] | activity in the rat brain mitochondria assay ([2]; comparison among Example compounds, in words) |
| --- | --- | --- | --- | --- |
| O=C(/C=C/c1ccc2cn[nH]c2c1)N[C@@H]1CCc2ccccc21 [Example 3, (R,E)-N-(2,3-dihydro-1H-inden-1-yl)-3-(1H-indazol-6-yl)acrylamide] | 52 | 7.3 | 2.2 (≈ 0.667 µg/mL) |  |
